From US11384060B2, “Amide compounds and use thereof” (ALPHALA CO., LTD., priority 2017, dated 2022)
pIC50: −log10 of the molar value. Like-named read-outs stand apart in the source and are kept apart here.

How the values were obtained:
[1] = molecular target: T1, glucagon receptor (GCGR) overexpressed CHO-K1 cells or human primary hepatocytes (Homo sapiens, UniProt P47871); assay: Glucagon cAMP inhibition assay (Cisbio cAMP Dynamic 2 HTRF); type: cell-based
T1 construct: expressed in transfected cells; host or cells: GCGR overexpressed CHO-K1 cells or human primary hepatocytes (endogenous receptor)
Procedure, shortened: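 GCGR-overexpressing CHO-K1 cells or human primary hepatocytes in HBSS with 0.1% BSA and 800 nM IBMX, pre-incubated 30 min with serially diluted compounds (1% DMSO final), then stimulated 30 min at room temperature with glucagon at its EC50. cAMP measured by HTRF after 60 min lysis; IC50 by non-linear regression.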

glucagon receptor (GCGR) = molecular target: T2, glucagon receptor (GCGR) (Homo sapiens, UniProt P47871); assay: I125-glucagon binding assay (competition, GCGR membrane fractions)
T2 construct: expressed in transfected cells; host or cells: CHO-K1 cells overexpressing GCGR (membrane fractions)
Procedure, shortened: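 Membranes from CHO-K1 cells overexpressing GCGR, 7.5 μg/well in 50 mM Tris pH 7.4 with 0.5% BSA, were preincubated 5 min with serially diluted compounds, then given 0.0625 nM final I^125-glucagon for 30 min at 25° C. Bound label was filtered on PEI-coated GF/B and counted; IC50 by non-linear regression.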

[2] = inhibition of glucagon (EC50 concentration) induced cAMP production
[3] = competition with I125-glucagon 0.0625 nM, membrane fractions of GCGR overexpressed CHO-K1 cells

T2 sequence (P47871 26-477): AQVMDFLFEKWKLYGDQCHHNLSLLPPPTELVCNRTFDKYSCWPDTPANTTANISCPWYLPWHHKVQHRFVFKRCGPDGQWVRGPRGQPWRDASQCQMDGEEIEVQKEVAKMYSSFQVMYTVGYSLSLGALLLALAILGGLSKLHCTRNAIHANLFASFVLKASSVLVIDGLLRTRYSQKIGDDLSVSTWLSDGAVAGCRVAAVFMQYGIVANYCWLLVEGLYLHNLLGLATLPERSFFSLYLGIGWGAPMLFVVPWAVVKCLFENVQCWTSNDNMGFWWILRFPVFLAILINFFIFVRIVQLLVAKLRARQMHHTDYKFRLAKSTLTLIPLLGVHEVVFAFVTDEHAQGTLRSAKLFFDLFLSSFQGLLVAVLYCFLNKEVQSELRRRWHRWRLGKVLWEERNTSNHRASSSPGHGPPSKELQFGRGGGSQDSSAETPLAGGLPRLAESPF
T1 sequence (P47871 26-477): as above

Row | IC50 cAMP [1, 2] | pIC50 (glucagon receptor (GCGR); [3]) | IC50 cAMP [1] | pIC50 (glucagon receptor (GCGR)) | Compound
1 | 427 nM | 6.44 | – | – | CC[C@H](C)[C@@H](COc1ccc(-c2ccc(Cl)cc2Cl)cc1)Nc1cnc(C(=O)NCCC(=O)O)cn1 [Compound 9-2, 3-(5-(((2S,3 S)-1-((2′,4′-dichloro-[1,1′-biphenyl]-4-yl)oxy)-3-methylpentan-2-yl)amino)pyrazine-2-carboxamido)propanoic Acid]
2 | – | – | >30000 nM | < 4.52 | CCOC(=O)CCNC(=O)c1ccc(N[C@H](COc2ccc(-c3nnc(C(C)(C)C)o3)cn2)c2ccc(-c3ccc(C(F)(F)F)cc3F)cc2)cc1 [Compound 15-31, Ethyl (S)-3-(4-((2-((5-(5-(tert-butyl)-1,3,4-oxadiazol-2-yl)pyridin-2-yl)oxy)-1-(2′-fluoro-4′-(trifluoromethyl)-[1,1′-biphenyl]-4-yl)ethyl)amino)benzamido)propanoate]
3 | 3859 nM | 6.32 | – | – | CCOC[C@@H](COc1ccc(-c2cc3ccccc3o2)cc1)Nc1ccc(C(=O)NCCC(=O)O)cc1 [Compound 6-3, (S)-3-(4-((1-(4-(benzofuran-2-yl)phenoxy)-3-ethoxypropan-2-yl)amino)benzamido)propanoic Acid]
4 | – | – | 75611 nM | 5.59 | CC(C)[C@H](Nc1ccc(C(=O)NCCS(=O)(=O)O)cc1)C(=O)Nc1ccc(-c2cc3ccccc3o2)cc1 [Compound 23-34, (S)-2-(4-((1-((4-(benzofuran-2-yl)phenyl)amino)-3-methyl-1-oxobutan-2-yl)amino)benzamido)ethane-1-sulfonic Acid]
5 | – | – | 9522 nM | 4.75 | CC(C)NC(=O)[C@@H](Cc1ccc(-c2cc3ccccc3o2)cc1)Nc1ccc(C(=O)NCCC(=O)O)cc1 [Compound 24-22, (R)-3-(4-((3-(4-(benzofuran-2-yl)phenyl)-1-(isopropylamino)-1-oxopropan-2-yl)amino)benzamido)propanoic Acid]
6 | 357.2 nM | 6.67 | – | – | CC(C)[C@@H](COc1ccc(-c2ccc(Cl)cc2Cl)cn1)Nc1ccc(C(=O)NCCC(=O)O)cn1 [Compound 16-1, (S)-3-(6-((1-((5-(2,4-dichlorophenyl)pyridin-2-yl)oxy)-3-methylbutan-2-yl)amino)nicotinamido)propanoic Acid]
7 | >30000 nM | 5.64 | – | – | CC(C)[C@@H](COc1ccc(-c2ccc(F)cc2)nn1)Nc1ccc(C(=O)NCCC(=O)O)cc1 [Compound 17-10, (S)-3-(4-((1-((6-(4-fluorophenyl)pyridazin-3-yl)oxy)-3-methylbutan-2-yl)amino)benzamido)propanoic Acid]
8 | – | – | 809 nM | 6.82 | CC(C)(C)c1nnc(-c2ccc(OC[C@@H](Nc3ccc(C(=O)NCCC(=O)O)cc3)c3ccc(-c4ccc(C(F)(F)F)cc4F)cc3)nc2)o1 [Compound 15-32, (S)-3-(4-((2-((5-(5-(tert-butyl)-1,3,4-oxadiazol-2-yl)pyridin-2-yl)oxy)-1-(2′-fluoro-4′-(trifluoromethyl)-[1,1′-biphenyl]-4-yl)ethyl)amino)benzamido)propanoic Acid]
9 | – | – | 111 nM | 7.29 | CC(C)[C@@H](COc1ccc(-c2cc3ccccc3o2)cn1)Nc1ccc(C(=O)NCCC(=O)O)cc1 [Compound 15-3, (S)-3-(4-((1-((5-(benzofuran-2-yl)pyridin-2-yl)oxy)-3-methylbutan-2-yl)amino)benzamido)propanoic Acid]
10 | 10741 nM | 5.69 | – | – | CC(C)[C@@H](COc1ccc(-c2cc3ccccc3o2)nn1)Nc1ccc(C(=O)NCCC(=O)O)cc1 [Compound 17-8, (S)-3-(4-((1-((6-(benzofuran-2-yl)pyridazin-3-yl)oxy)-3-methylbutan-2-yl)amino)benzamido)propanoic Acid]
11 | 386.1 nM | 6.90 | – | – | CC(C)[C@@H](COc1ccc(-c2cc3ccccc3o2)cc1)Nc1cnc(C(=O)NCCC(=O)O)cn1 [Compound 9-1, (S)-3-(5-((1-(4-(benzofuran-2-yl)phenoxy)-3-methylbutan-2-yl)amino)pyrazino-2-carboxamido)propanoic Acid]
12 | 62.8 nM | 6.97 | – | – | CCCC[C@@H](COc1cc(C)c(-c2cc3ccccc3o2)c(C)c1)Nc1ccc(C(=O)NCCC(=O)O)cc1 [Compound 2-12, (S)-3-(4-((1-(4-(benzofuran-2-yl)-3,5-dimethylphenoxy)hexan-2-yl)amino)benzamido)propanoic Acid]
13 | 90.4 nM | 7.36 | – | – | CC(C)[C@@H](COc1ccc(-c2ccc(C(F)(F)F)cc2F)cc1)Nc1ccc(C(=O)NCCC(=O)O)cc1 [Compound 1-25]
14 | – | – | >30000 nM | < 4.52 | CC(C)[C@@H](COc1nnc(-c2cc3ccccc3o2)o1)Nc1ccc(C(=O)NCCC(=O)O)cc1 [Compound 22-12, (S)-3-(4-((1-((5-(benzofuran-2-yl)-1,3,4-oxadiazol-2-yl)oxy)-3-methylbutan-2-yl)amino)benzamido)propanoic Acid]
15 | – | – | 731 nM | 6.52 | CCCC[C@H](Cc1ccc(-c2ccc(C(C)(C)C)cc2)cc1)Nc1ccc(C(=O)NCCC(=O)O)cc1 [Compound 19-7, (R)-3-(4-((1-(4′-(tert-butyl)-[1,1′-biphenyl]-4-yl)hexan-2-yl)amino)benzamido)propanoic Acid]
16 | 468 nM | 6.80 | – | – | CC[C@H](C)[C@@H](COc1cc(C)c(-c2cc3ccccc3o2)c(C)c1)Nc1ccc(C(=O)NCCC(=O)O)cc1 [Compound 2-7, 3-(4-(((2S,3S)-1-(4-(benzofuran-2-yl)-3,5-dimethylphenoxy)-3-methylpentan-2-yl)amino)benzamido)propanoic Acid]
17 | – | – | 284.7 nM | 6.68 | CC(C)C[C@@H](COc1ccc(-c2ccc(C(F)(F)F)cc2)cn1)Nc1ccc(C(=O)NCCC(=O)O)cc1 [Compound 15-11, (S)-3-(4-((4-methyl-1-((5-(4-(trifluoromethyl)phenyl)pyridin-2-yl)oxy)pentan-2-yl)amino)benzamido)propanoic Acid]
18 | 235.3 nM | 6.71 | – | – | CC(C)(C)[C@@H](COc1ccc(-c2cc3ccccc3o2)cc1)Nc1ccc(C(=O)NCCC(=O)O)cc1 [Compound 1-40, (S)-3-(4-((1-(4-(benzofuran-2-yl)phenoxy)-3,3-dimethylbutan-2-yl)amino)benzamido)propanoic Acid]
19 | – | – | 11647 nM | 7.00 | O=C(NCCS(=O)(=O)O)c1ccc(N[C@H](COc2ccc(-c3cc4ccccc4o3)cn2)c2ccc(-c3ccc(C(F)(F)F)cc3)cc2)cc1 [Compound 15-28, (S)-2-(4-((2-((5-(benzofuran-2-yl)pyridin-2-yl)oxy)-1-(4′-(trifluoromethyl)-[1,1′-biphenyl]-4-yl)ethyl)amino)benzamido)ethane-1-sulfonic Acid]
20 | – | – | 3241 nM | 6.20 | CC(C)(C)c1ccc(-c2ccc(OC[C@@H](Nc3ccc(C(=O)NCCC(=O)O)cc3)c3ccccc3)nc2)cc1 [Compound 15-4]
21 | 3305 nM | 7.01 | – | – | CC[C@H](C)[C@@H](COc1ccc(-c2cc3ccccc3o2)cc1)Nc1ccc(C(=O)NCc2nnn[nH]2)cc1 [Compound 1-8]
22 | 10000 nM | 6.41 | – | – | CCC(C)[C@@H](COc1ccc(-c2nnc(C(F)(F)F)o2)cc1)Nc1ccc(C(=O)NCCC(=O)O)cc1 (stereo partly drawn) [Compound 1-44, 3-(4-((3-methyl-1-(4-(5-(trifluoromethyl)-1,3,4-oxadiazol-2-yl)phenoxy)pentan-2-yl)amino)benzamido)propanoic Acid]
23 | 493 nM | 6.50 | – | – | CCCC[C@@H](COc1ccc(-c2cc(Cl)cc(Cl)c2)nc1)Nc1ccc(C(=O)NCCC(=O)O)cc1 [Compound 10-10, (S)-3-(4-((1-((6-(3,5-dichlorophenyl)pyridin-3-yl)oxy)hexan-2-yl)amino)benzamido) propanoic Acid]
24 | 17895 nM | 5.42 | – | – | CC(C)[C@@H](COc1ccc(-c2cn3ccccc3n2)cc1)Nc1ccc(C(=O)NCCC(=O)O)cc1 [Compound 1-39, (S)-3-(4-((1-(4-(imidazo[1,2-a]pyridin-2-yl)phenoxy)-3-methylbutan-2-yl)amino)benzamido)propanoic Acid]
25 | 2300 nM | 5.78 | – | – | CC(C)C[C@@H](COc1cc(F)c(-c2ccc(C(F)(F)F)cc2)c(F)c1)Nc1ccc(C(=O)NCCC(=O)O)cn1 [Compound 9-4, (S)-3-(6-((1-((2,6-difluoro-4′-(trifluoromethyl)-[1,1′-biphenyl]-4-yl)oxy)-4-methylpentan-2-yl)amino)nicotinamido)propanoic Acid]
26 | 371 nM | 6.84 | – | – | CC(C)C[C@@H](COc1cc(F)c(-c2ccc(C(F)(F)F)cc2)c(F)c1)Nc1ccc(C(=O)NCCC(=O)O)cc1 [Compound 7-6, (S)-3-(4-((1-((2,6-difluoro-4′-(trifluoromethyl)-[1,1′-biphenyl]-4-yl)oxy)-4-methylpentan-2-yl)amino)benzamido)propanoic Acid]

Row | Compound | IC50 cAMP [1, 2] | pIC50 (glucagon receptor (GCGR); [3]) | IC50 cAMP [1] | pIC50 (glucagon receptor (GCGR))
27 | CC(C)COC[C@@H](Cc1ccc(-c2ccc(C(C)(C)C)cc2)cc1)Nc1ccc(C(=O)NCCC(=O)O)cc1 [Compound 19-17, (R)-3-(4-((1-(4′-(tert-butyl)-[1,1′-biphenyl]-4-yl)-3-isobutoxypropan-2-yl)amino)benzamido)propanoic Acid] | – | – | 1225 nM | 5.98
